Source: PubChem BioAssay (NCI)
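In this assay, cells in 96-well plates receive the compound at five concentrations for 48 hours. Endpoints are linearly interpolated between the surrounding concentrations. GI50 = concentration required for 50% inhibition of growth. The concentration for full growth arrest is given as TGI.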

Assays:
Assay in all cases: growth of human tumour cells (NCI), 48 h
[1] = test system: CAKI-1 renal
[2] = test system: MDA-MB-435
[3] = test system: HL-60(TB) leukemia
[4] = test system: HCC-2998 colon
[5] = test system: HS 578T breast
[6] = test system: HCT-116 colon
[7] = test system: SR leukemia
[8] = test system: SF-268 CNS
[9] = test system: DU-145 prostate
[10] = test system: K-562 leukemia
[11] = test system: SNB-19 CNS
[12] = test system: SK-MEL-28 melanoma
[13] = test system: NCI-H460 lung
[14] = test system: SW-620 colon
[15] = test system: T-47D breast
[16] = test system: ACHN renal
[17] = test system: EKVX NSCLC
[18] = test system: SF-295 CNS
[19] = test system: OVCAR-4 ovarian
[20] = test system: OVCAR-5 ovarian
[21] = test system: UACC-62 melanoma
[22] = test system: HT29 colon
[23] = test system: IGROV1 ovarian
[24] = test system: CCRF-CEM leukemia
[25] = test system: SK-OV-3 ovarian
[26] = test system: MALME-3M melanoma
[27] = test system: RPMI-8226 leukemia
[28] = test system: M14 melanoma
[29] = test system: A498 renal
[30] = test system: A549 NSCLC
[31] = test system: HOP-62 NSCLC
[32] = test system: TK-10 renal
[33] = test system: RXF 393 renal
[34] = test system: PC-3 prostate
[35] = test system: LOX IMVI melanoma
[36] = test system: MOLT-4 leukemia
[37] = test system: MDA-MB-231 breast
[38] = test system: NCI/ADR-RES ovarian
[39] = test system: UO-31 renal
[40] = test system: MCF7 breast
[41] = test system: NCI-H226 lung
[42] = test system: SN12C renal
[43] = test system: SK-MEL-2 melanoma
[44] = test system: HCT-15 colon
[45] = test system: NCI-H23 lung
[46] = test system: OVCAR-3 ovarian
[47] = test system: BT-549 breast
[48] = test system: SK-MEL-5 melanoma
[49] = test system: KM12 colon
[50] = test system: 786-0 renal
[51] = test system: OVCAR-8 ovarian
[52] = test system: HOP-92 NSCLC
[53] = test system: SNB-75 CNS
[54] = test system: COLO 205 colon
[55] = test system: U251 CNS
[56] = test system: SF-539 CNS
[57] = test system: NCI-H522 lung

SMILES: Nc1nonc1C(=Nc1ccc(F)c(Cl)c1)NO
- GI50 [1]: 28.8 µM
- TGI [1]: > 100 µM
- GI50 [2]: > 88.4 µM
- TGI [2]: > 100 µM
- GI50 [3]: 62.8 µM
- TGI [3]: > 100 µM
- GI50 [4]: > 91.5 µM
- TGI [4]: > 100 µM
- GI50 [5]: 49.5 µM
- TGI [5]: > 100 µM
- GI50 [6]: 51.5 µM
- TGI [6]: > 100 µM
- GI50 [7]: > 63.2 µM
- TGI [7]: > 100 µM
- GI50 [8]: 39.4 µM
- TGI [8]: > 100 µM
- GI50 [9]: 63.7 µM
- TGI [9]: > 100 µM
- GI50 [10]: 58.8 µM
- TGI [10]: > 100 µM
- GI50 [11]: > 94.2 µM
- TGI [11]: > 100 µM
- GI50 [12]: > 100 µM
- TGI [12]: > 100 µM
- GI50 [13]: > 93.2 µM
- TGI [13]: > 100 µM
- GI50 [14]: > 100 µM
- TGI [14]: > 100 µM
- GI50 [15]: 20.4 µM
- TGI [15]: > 100 µM
- GI50 [16]: 32.7 µM
- TGI [16]: > 100 µM
- GI50 [17]: 25.1 µM
- TGI [17]: > 100 µM
- GI50 [18]: 37.9 µM
- TGI [18]: > 100 µM
- GI50 [19]: 25.3 µM
- TGI [19]: > 100 µM
- GI50 [20]: 53.2 µM
- TGI [20]: > 100 µM
- GI50 [21]: 29.8 µM
- TGI [21]: > 100 µM
- GI50 [22]: > 100 µM
- TGI [22]: > 100 µM
- GI50 [23]: 28.9 µM
- TGI [23]: > 100 µM
- GI50 [24]: 98.3 µM
- TGI [24]: > 100 µM
- GI50 [25]: 49.3 µM
- TGI [25]: > 100 µM
- GI50 [26]: 95.2 µM
- TGI [26]: > 100 µM
- GI50 [27]: 42.3 µM
- TGI [27]: > 100 µM
- GI50 [28]: 51.9 µM
- TGI [28]: > 100 µM
- GI50 [29]: 21.1 µM
- TGI [29]: > 86.9 µM
- GI50 [30]: > 66 µM
- TGI [30]: > 100 µM
- GI50 [31]: 28 µM
- TGI [31]: > 100 µM
- GI50 [32]: 55.9 µM
- TGI [32]: > 100 µM
- GI50 [33]: 33.6 µM
- TGI [33]: > 100 µM
- GI50 [34]: 42.4 µM
- TGI [34]: > 100 µM
- GI50 [35]: 40 µM
- TGI [35]: > 100 µM
- GI50 [36]: 43.4 µM
- TGI [36]: > 100 µM
- GI50 [37]: 29.7 µM
- TGI [37]: > 100 µM
- GI50 [38]: 49.2 µM
- TGI [38]: > 100 µM
- GI50 [39]: 12.6 µM
- TGI [39]: 97.5 µM
- GI50 [40]: 41.6 µM
- TGI [40]: > 100 µM
- GI50 [41]: 68 µM
- TGI [41]: > 100 µM
- GI50 [42]: 45.8 µM
- TGI [42]: > 100 µM
- GI50 [43]: 65 µM
- TGI [43]: > 100 µM
- GI50 [44]: 47.3 µM
- TGI [44]: > 100 µM
- GI50 [45]: 46.6 µM
- TGI [45]: > 100 µM
- GI50 [46]: 43.1 µM
- TGI [46]: > 100 µM
- GI50 [47]: 29.8 µM
- TGI [47]: > 100 µM
- GI50 [48]: 41.4 µM
- TGI [48]: > 100 µM
- GI50 [49]: 79 µM
- TGI [49]: > 100 µM
- GI50 [50]: 63.3 µM
- TGI [50]: > 100 µM
- GI50 [51]: 71.1 µM
- TGI [51]: > 100 µM
- GI50 [52]: 12.6 µM
- TGI [52]: 54.9 µM
- GI50 [53]: 14.2 µM
- TGI [53]: 76.5 µM
- GI50 [54]: 60.5 µM
- TGI [54]: > 100 µM
- GI50 [55]: > 75.7 µM
- TGI [55]: > 100 µM
- GI50 [56]: 54.2 µM
- TGI [56]: > 100 µM
- GI50 [57]: > 47.1 µM
- TGI [57]: > 100 µM
